Source: patent publication US20230141988A1, “PHARMACEUTICAL COMPOSITION FOR USE IN THE TREATMENT OF NEUROLOGICAL DISEASES” (Aclipse One Inc., priority 2020, published 2023)
Values joined by “and” are separate entries in the source; they are usually repeats but may differ in a detail not shown here. Identical values can stand only once. Like-named read-outs stand apart in the source and are kept apart here.

Legend:
[1] = Oxidation in liquid solutions; type: physicochemical; conditions: in the liquid solutions
[2] = Pharmacokinetic study, single IV, subcutaneous, PO and IN dose, male SD rats (plasma); conditions: rat, in vivo
Description: (§1) The vehicle for the IV, subcutaneous, PO and IN formulation contained “0.1% sodium metabisulfite solution”.
(§2) Male SD rats were purchased from Si Bei Fu Laboratory Animal Technology Co. Ltd (Beijing, China). The animals were about 8 weeks old with body weights of 200-300 g on the dosing date. The animals were housed in a 12-hour light/12-hour dark cycle environment and had free access to food and water. All animals were fasted overnight and fed after 4 hours collection.
(§3) Plasma samples were collected from jugular vein at each time point after IV, subcutaneous, PO and IN administrations.
(§4) About 200 μL of blood samples were collected from each animal via jugular vein. These blood samples were placed into the tubes containing K2EDTA. And centrifugation at 3000 g for 10 minutes in a 4° C. centrifuge. The completion time from collection was less than 30 min. The stabilizing agent of ascorbic acid at 200 mg/mL was added in a proportion of 10% in plasma. The plasma samples were stored in a freezer at −75±15° C. prior to analysis. The completion time from collection was less than 60 min.
(§5) Calibration standard working solutions were prepared at concentrations of 2, 5, 10, 20, 50, 100, 500, 1000, 5000 and 10000 ng/mL by serial dilution of the standard stock solution in 50% acetonitrile in water. Quality control working solutions at concentrations of 5, 10, 20, 500 and 8000 ng/mL were prepared by serial dilution of the standard stock solution in 50% acetonitrile in water. These QC samples were prepared on the day of analysis in the same way as calibration standards.
(§6) For plasma samples, 2 μL of each calibration standard working solution (2, 5, 10, 20, 50, 100, 500, 1000, 5000 and 10000 ng/mL) was added to 20 μL of the blank SD rat plasma (with 10% 200 mg/mL ascorbic acid) to achieve calibration standards of 0.2-1000 ng/mL (0.2, 0.5, 1, 2, 5, 10, 50, 100, 500, 1000 ng/mL) in a total volume of 22 μL. Quality Control (QC) samples at 0.5 ng/mL (low-1), 1 ng/mL (low-2) and 2 ng/mL (low-3), 50 ng/mL (mid), 800 ng/mL (high) for plasma were prepared independently for those used for the calibration curves. These QC samples were prepared on the day of analysis in the same way as calibration standards. The total volumes of 22 μL of standards, 22 μL of QC samples and 22 μL of unknown samples (20 μL of unknown plasma (with 10% 200 mg/mL ascorbic acid) with 2 μL 50% acetonitrile) were added to 200 μL of acetonitrile containing IS to precipitate proteins. Then the samples were vortexed for 30 sec. After centrifugation at 4° C., 4700 rpm for 30 min, and supernatant was diluted 2 times with water, 10 μL of the diluted supernatant was injected into the LC-MS/MS system for quantitative analysis.
All the samples were processed on ice.
(§7) The LC-MS/MS system consisted of two Shimadzu LC-30AD pumps, a DGU-20A5R degasser, a Rack changer II and LCMS-8060 LC/MS/MS instrument mass spectrometer.
(§8) OD-3R Particle size 3 μm 4.6 mm×150 mm column at room temperature. The mobile phase was composed of A: Water (5 mM Ammonium Acetate); B: Ethanol (5 mM Ammonium Acetate). The flow rate was 0.5 mL/min. The injection volume was 10 μL.
(§9) A multiple reaction monitoring (MRM) method was selected for quantitative analysis. […] The instrument parameters were set as follows: ion spray voltage: 8060; heating gas flow: 10 L/min; interface temperature: 250° C.; DL temperature: 220° C.; heat block temperature: 400° C.; drying gas flow: 10 L/min.
(§10) Data acquisition was performed by Lab Solutions version 5.89 Software (Shimadzu). All concentration data was reported with 3 significant figures. Data statistics were performed using Excel 2010 software.
(§11) The linear trapezoidal algorithm was used for AUC calculation.

[3] = in vivo; conditions: male, C57BL/6J, mouse, po, 25 mg/kg; for concentration at […]: […] post last day (Day 4) dose
Description: (§12) Male C57BL/6J mice were purchased from Si Bei Fu Laboratory Animal Technology Co. Ltd (Beijing, China). The animals were about 8 weeks old with body weights of 20-30 g on the dosing date. The animals were housed in a 12-hour light/12-hour dark cycle environment and had free access to food and water. All animals were fasted overnight and fed after 4 hours collection.
(§13) The formulation was freshly made prior to use. Preparation of formulation for oral dosing are as follows:
(§14) For Group 1 and 2, blood, CSF and brain samples were collected from 3 mice at the following time points.
(§15) Plasma samples: About 30 μL or 300 μL of blood samples were collected from each animal via dorsal metatarsal vein or heart. These blood samples were placed into the tubes containing K2EDTA. And centrifugation at 3000 g for 10 minutes in a 4° C. centrifuge. The completion time from collection was less than 30 min. The stabilizing agent of ascorbic acid at 200 mg/mL was added in a proportion of 10% in plasma. The plasma samples were stored in a freezer at −75±15° C. prior to analysis. The completion time from collection was less than 60 min.
(§16) Brain and CSF Samples: The animals were fully exsanguinated with a rising concentration of CO2 gas prior to CSF and brain collection.
(§17) For CSF collection, make an incision by scissors on the neck of the rats, and the foramen magnum is exposed to the sight of scientist. Use a syringe with a venoclysis needle to sample the CSF, the tip of the needle is insert into the membrane of foramen magnum about 1-2 mm, and then pull the stopcock a small length of the syringe to make a negative pressure, then the CSF fluids to the tube. Watch the fluid in the tube and pull the stopcock slowly, when the amount of the CSF is enough, stop and split the needle and the syringe to ensure there is no negative pressure in the tube. Then cut off the needle and collect the CSF fluid. If we could see the blood in the tube, stop immediately, split the needle and the syringe, and then cut off between the blood and CSF to ensure there is no blood in the CSF fluid. Then collect the CSF fluid. The stabilizing agent of ascorbic acid at 200 mg/mL was added in a proportion of 10% in CSF. The completion time from collection was less than 60 min.
(§18) For brain collection. Brain samples were collected at adopted time point, and washed 3 times with cold saline, then dried with clean gauze and put into the weighed tube, quick frozen in ice box and kept at −75±15° C. All brain samples were weighted and homogenized with phosphate buffered saline (PBS) by brain weight (g) to PBS volume (mL) ratio 1:3 before analysis. The stabilizing agent of ascorbic acid at 200 mg/mL was added in a proportion of 10% in Brain homogenate. The actual concentration was the detected value multiplied by the dilution factor. Brain samples were collected at designed time point, quickly homogenized and kept at −75±15° C. The completion time from collection was less than 60 min.
(§19) Calibration standard working solutions were prepared at concentrations of 0.2, 0.5, 1, 2, 5, 10, 50, 100, 500, 1000 ng/mL by serial dilution of the standard stock solution. These QC samples were prepared on the day of analysis in the same way as calibration standards.
(§20) Plasma: The desired serial concentrations of working solutions were achieved by diluting stock solution of analyte with 50% acetonitrile in water solution. 10 μL of working solutions (0.1, 0.2, 0.5, 1, 2, 5, 10, 50, 100, 500, 1000 ng/mL) were added to 10 μL of the blank C57BL/6J Mice plasma to achieve calibration standards of 0.1˜1000 ng/mL (0.1, 0.2, 0.5, 1, 2, 5, 10, 50, 100, 500, 1000 ng/mL) in a total volume of 20 μL.

[4] = in vivo; conditions: male, SD, rat
Description: The vehicle for the IN and PO formulation contained “0.1% sodium metabisulfite solution”.
The animals were about 8 weeks old with body weights of 200-300 g on the dosing date. The animals were housed in a 12-hour light/12-hour dark cycle environment and had free access to food and water. All animals were fasted overnight and fed after 4 hours collection.
For group 2, plasma, CSF and brain samples were collected at 0.5 and 1 h post dose.
For Group 2 (PO dose, 10.56 mg/kg), blood, CSF and brain samples were collected from 3 mice at two time point: 0.5 h and 1 h post dose.
For plasma samples, about 200 μL of blood samples were collected from each animal via jugular vein. These blood samples were placed into the tubes containing K2EDTA, and centrifuged at 3000 g for 10 minutes in a 4° C. centrifuge. The completion time from collection was less than 30 min. The stabilizing agent of ascorbic acid at 200 mg/mL was added in a proportion of 10% in plasma. The plasma samples were stored in a freezer at −75±15° C. prior to analysis. The completion time from collection was less than 60 min.
For brain and CSF samples, The animals were fully exsanguinated with a rising concentration of CO2 gas prior to CSF and brain collection. […]
For brain collection. […] The actual concentration was the detected value multiplied by the dilution factor. […]

[5] = in vivo; conditions: male, SD, rat; for AUC(0-inf): AUCInf; for AUC(0-t): AUClast; for MRT inf: MRTInf
Description: as §1, §2, §3, §4, §5, §6
All the samples were processed on ice.
as §7, §8, §9, §10, §11

[6] = for AUC_%Extrap_obs: Mean, male C57BL/6J mice; for Brain concentration, Mean / Plasma concentration, Mean / CSF concentration / plasma concentration: male, C57BL/6J, mouse, in vivo, po, 25 mg/kg
Description: as §12, §13, §14, §15, §16, §17, §18, §19, §20

[7] = subcutaneous […], plasma, mean of 3 mice
Description: 9 male C57BL/6J mice following administration of a single subcutaneous dose of 4.40 mg/kg. The vehicle for the subcutaneous formulation contained “0.1% sodium metabisulfite solution”.
as §12
For group 1, plasma samples were collected from dorsal metatarsal vein at each time point after subcutaneous administrations.
For plasma samples, about 30 μL or 300 μL of blood samples were collected from each animal via dorsal metatarsal vein or heart. These blood samples were placed into the tubes containing K2EDTA. And centrifugation at 3000 g for 10 minutes in a 4° C. centrifuge. The completion time from collection was less than 30 min. The stabilizing agent of ascorbic acid at 200 mg/mL was added in a proportion of 10% in plasma. The plasma samples were stored in a freezer at −75±15° C. prior to analysis. The completion time from collection was less than 60 min.
For brain and CSF samples, The animals were fully exsanguinated with a rising concentration of CO2 gas prior to CSF and brain collection.
For CSF collection, incision was made by scissors on the neck of the rats to expose the foramen magnum. A syringe fitted with a venoclysis needle was used to sample the CSF, the tip of the needle was inserted into the membrane of foramen magnum about 1-2 mm, and a negative pressure was applied by pulling a stopcock a small length of the syringe to extract CSF fluids into a tube. The stopcock was further actuated to until a sufficient amount of CSF was collected. There should be no blood in the CSF fluid. A stabilizing agent of ascorbic acid at 200 mg/mL was added in a proportion of 10% in CSF.
For brain collection. Brain samples were collected at an adopted time point, and washed 3 times with cold saline, then dried with clean gauze and put into the weighed tube, quick frozen in an ice box and kept at −75±15° C. All brain samples were weighted and homogenized with phosphate buffered saline (PBS) by brain weight (g) to PBS volume (mL) ratio 1:3 before analysis. The stabilizing agent of ascorbic acid at 200 mg/mL was added in a proportion of 10% in grain homogenate. The actual concentration was the detected value multiplied by the dilution factor. Brain samples were collected at designed time point, quickly homogenized and kept at −75±15° C.
Calibration standard working solutions were prepared at concentrations of 2, 5, 10, 20, 50, 100, 500, 1000, 5000 and 10000 ng/mL by serial dilution of the standard stock solution in 50% acetonitrile in water. Quality control working solutions at concentrations of 5, 10, 500 and 8000 ng/mL were prepared by serial dilution of the standard stock solution in 50% acetonitrile in water. These QC samples were prepared on the day of analysis in the same way as calibration standards.
For plasma and brain samples, 3 μL of each calibration standard working solution (2, 5, 10, 20, 50, 100, 500, 1000, 5000 and 10000 ng/mL) was added to 30 μL of the blank C57BL/6J mouse plasma or brain homogenate (with 10% 200 mg/mL ascorbic acid) to achieve calibration standards of 0.2-1000 ng/mL (0.2, 0.5, 1, 2, 5, 10, 50, 100, 500, 1000 ng/mL) in a total volume of 33 μL. Quality Control (QC) samples at 0.5 ng/mL (low-1), 1 ng/mL (low-2), 50 ng/mL (mid), 800 ng/mL (high) for plasma were prepared independently for those used for the calibration curves. These QC samples were prepared on the day of analysis in the same way as calibration standards.

[8] = rat, in vivo; for plasma concentration: male, SD
Description: as §1, §2, §3, §4, §5, §6
All the samples were processed on ice.
as §7, §8, §9, §10, §11

[9] = 0.88 mg/kg, plasma concentration
[10] = iv, 0.88 mg/kg, plasma concentration
[11] = iv, 0.88 mg/kg, plasma concentration, Mean

Structure (SMILES): CN1CCc2cccc3c2[C@@H]1Cc1ccc(O)c(O)c1-3
- oxidation [1]: significant oxidation
- Cl ([2]; iv, 0.88 mg/kg): 209 mL/min/kg
- AUClast/D ([2]; po, […]): 7.39 mg·h/mL
- AUClast/D ([2]; sc, 0.88 mg/kg): 77.3 mg·h/mL
- Tmax [3]: 6 min
- AUC(0-t) ([3]; AUClast, plasma, Mean, male C57BL/6J mice, single oral dose 25 mg/kg): 857 ng·h/mL
- concentration at 0.5 h ([3]; Brain concentration, Mean): 65.7 ng/g
- concentration at 1 h ([3]; Brain concentration, Mean): 22.6 ng/g
- concentration at 2 h ([3]; Brain concentration, Mean): 16.8 ng/g
- concentration at 3 h ([3]; Brain concentration, Mean): 11.5 ng/g
- concentration at […] ([3]; Brain concentration, Mean, male C57BL/6J mice, repeated oral dose 25 mg/kg): 2330 ng/g
- concentration at 2 h ([3]; Brain concentration, male C57BL/6J mice, repeated oral dose 25 mg/kg, 2 h post last day (Day 4) dose, G3): 10.9 ng/g
- concentration at […] ([3]; Brain concentration, male C57BL/6J mice, repeated oral dose 25 mg/kg, G3): 1080 ng/g
- concentration at 1 h ([3]; CSF concentration): 3.71 ng/mL
- concentration at 2 h ([3]; CSF concentration): 3.08 ng/mL
- concentration at 4 h ([3]; CSF concentration): 4.08 ng/mL
- concentration at 0.5 h ([3]; CSF concentration, Mean): 7.7 ng/mL
- concentration at 1 h ([3]; CSF concentration, Mean): 3.32 ng/mL
- concentration at 2 h ([3]; CSF concentration, Mean): 3.56 ng/mL
- concentration at 4 h ([3]; CSF concentration, Mean): 3.42 ng/mL
- concentration at […] ([3]; CSF concentration, Mean, male C57BL/6J mice, repeated oral dose 25 mg/kg): 50.2 ng/mL
- concentration at […] ([3]; CSF concentration, male C57BL/6J mice, repeated oral dose 25 mg/kg, G2): 178 ng/mL
- concentration at 1 h ([3]; CSF concentration, male C57BL/6J mice, single oral dose 25 mg/kg, 1 h, G3): 3.18 ng/mL
- Cmax [3]: 200 ng/mL
- Cmax ([3]; CSF, Mean, male C57BL/6J mice, single oral dose 25 mg/kg): 56.4 ng/mL
- Cmax ([3]; brain, Mean, male C57BL/6J mice, last day (Day 4) of repeated oral dose 25 mg/kg): 2330 ng/mL
- Cmax ([3]; brain, Mean, male C57BL/6J mice, single oral dose 25 mg/kg): 729 ng/mL
- Cmax ([3]; plasma, Mean, male C57BL/6J mice, last day (Day 4) of repeated oral dose 25 mg/kg): 1360 ng/mL
- Cmax ([3]; plasma, Mean, male C57BL/6J mice, single oral dose 25 mg/kg): 1150 ng/mL
- concentration at 2 h ([3]; Plasma concentration): 100 ng/mL
- concentration at 8 h ([3]; Plasma concentration): 0.765 ng/mL
- concentration at 12 h ([3]; Plasma concentration): 0.198 ng/mL
- concentration at 0.5 h ([3]; Plasma concentration, Mean): 528 ng/mL
- concentration at 1 h ([3]; Plasma concentration, Mean): 235 ng/mL
- concentration at 2 h ([3]; Plasma concentration, Mean): 74.4 ng/mL
- concentration at 3 h ([3]; Plasma concentration, Mean): 72.4 ng/mL
- concentration at 8 h ([3]; Plasma concentration, Mean): 0.87 ng/mL
- concentration at 12 h ([3]; Plasma concentration, Mean): 0.174 ng/mL
- concentration at […] ([3]; Plasma concentration, Mean, male C57BL/6J mice, repeated oral dose 25 mg/kg): 1360 ng/mL
- concentration at 2 h ([3]; Plasma concentration, Mean, male C57BL/6J mice, single oral dose 25 mg/kg, 2 h): 122 ng/mL
- concentration at 1 h ([3]; Plasma concentration, male C57BL/6J mice, repeated oral dose 25 mg/kg, 1 h post last day (Day 4) dose, G1): 112 ng/mL
- concentration at 3 h ([3]; Plasma concentration, male C57BL/6J mice, repeated oral dose 25 mg/kg, 3 h post last day (Day 4) dose, G3): 73.1 ng/mL
- concentration at 8 h ([3]; Plasma concentration, male C57BL/6J mice, repeated oral dose 25 mg/kg, 8 h post last day (Day 4) dose, G3): 1.24 ng/mL
- concentration at […] ([3]; Plasma concentration, male C57BL/6J mice, repeated oral dose 25 mg/kg, G1): 1460 ng/mL
- concentration at […] ([3]; Plasma concentration, male C57BL/6J mice, repeated oral dose 25 mg/kg, G2): 1520 ng/mL
- concentration at […] ([3]; Plasma concentration, male C57BL/6J mice, repeated oral dose 25 mg/kg, G3): 1110 ng/mL
- concentration at 1 h ([3]; Plasma concentration, male C57BL/6J mice, single oral dose 25 mg/kg, 1 h, G2): 162 ng/mL
- concentration at 2 h ([3]; Plasma concentration, male C57BL/6J mice, single oral dose 25 mg/kg, 2 h, G2): 138 ng/mL
- Kp at 0.5 h [4]: 0.233
- concentration at 0.5 h [4]: 299 ng/g
- concentration at 0.5 h [5]: 31 ng/mL
- concentration at 1 h [5]: 8.96 ng/mL
- concentration at 2 h [5]: 6.87 ng/mL
- concentration at 8 h [5]: 0.651 ng/mL
- concentration at […] [5]: 114 ng/mL
- concentration at […] ([5]; 0.88 mg/kg): 119 ng/mL
- concentration at 2 min [5, 9]: 42.7 ng/mL
- concentration at 0.5 h [5, 9]: 40.5 ng/mL
- concentration at 1 h [5, 9]: 5.76 ng/mL
- concentration at 2 h [5, 9]: 1.52 ng/mL
- concentration at 8 h [5, 9]: 0.877 ng/mL
- concentration at […] [5, 9]: 162 ng/mL and 151 ng/mL and 107 ng/mL
- AUC(0-inf) ([5]; iv, 0.88 mg/kg): 86.6 ng·h/mL
- AUC(0-t) ([5]; iv, 0.88 mg/kg): 83.2 ng·h/mL
- C0 ([5]; iv, 0.88 mg/kg, C0): 527 ng/mL
- clearance ([5]; iv, 0.88 mg/kg, Cl): 169 mL/min/kg
- MRT inf ([5]; iv, 0.88 mg/kg): 75.6 min
- Vd ([5]; iv, 0.88 mg/kg, Vss): 12.8 L/kg
- concentration at 2 min [5, 10]: 353 ng/mL
- concentration at 0.5 h [5, 10]: 17.8 ng/mL
- concentration at 1 h [5, 10]: 7.6 ng/mL
- concentration at 2 h [5, 10]: 4.32 ng/mL
- concentration at 8 h [5, 10]: 0.88 ng/mL
- concentration at […] [5, 10]: 104 ng/mL
- concentration at 2 min [5, 11]: 339 ng/mL
- concentration at 0.5 h [5, 11]: 16.4 ng/mL
- concentration at 1 h [5, 11]: 6.37 ng/mL
- concentration at 2 h [5, 11]: 3.67 ng/mL
- concentration at 8 h [5, 11]: 0.777 ng/mL
- AUC(0-inf) ([5]; sc, 0.88 mg/kg): 71.2 ng·h/mL
- AUC(0-t) ([5]; sc, 0.88 mg/kg): 70.2 ng·h/mL
- Cmax ([5]; sc, 0.88 mg/kg, Cmax): 141 ng/mL
- MRT inf ([5]; sc, 0.88 mg/kg): 52.4 min
- AUC_%Extrap_obs ([6]; CSF, last day (Day 4) of repeated oral dose 25 mg/kg): 3.18%
- AUC_%Extrap_obs ([6]; brain, single oral dose 25 mg/kg): 18.5%
- Brain concentration, Mean ([6]; 0.5 h): 90 ng/g
- Plasma concentration, Mean ([6]; 0.5 h): 453 ng/mL
- Brain concentration, Mean ([6]; 1 h): 36.3 ng/g
- CSF concentration ([6]; 1 h): 3.06 ng/mL
- Plasma concentration, Mean ([6]; 1 h): 153 ng/mL
- Brain concentration, Mean ([6]; 2 h): 21.9 ng/g
- Brain concentration, Mean ([6]; 3 h): 6.80 ng/g
- Plasma concentration, Mean ([6]; 3 h): 48.2 ng/mL
- CSF concentration ([6]; 4 h): 3.42 ng/mL
- plasma concentration ([6]; 8 h): 0.599 ng/mL
- plasma concentration ([6]; 12 h): 0.150 ng/mL
- AUClast/D [7]: 73.8 mg·h/mL
- plasma concentration ([8]; 0.5 h): 35.7 ng/mL
- plasma concentration ([8]; iv, 0.88 mg/kg, 1 h): 6.23 ng/mL
- animal death related to drug administration [8]: no animal death related to drug administration
- drug-related changes in clinical signs and behavioral responses [8]: no obvious drug-related changes in clinical signs and behavioral responses
